From patent US5681823A, “P^1, P^4 -dithio-P^2 -P^3 -monochloromethylene 5', 5'"-diadenosine P^1, P^4 -tetraphosphate as antithrombotic agent” (PRP Inc., priority 1996, dated 1997)
Entries after “also recorded” stand apart in the source; their conditions may differ. Like-named read-outs stand apart in the source and are kept apart here.

Assays:
[1] = tested on: Cytoplasmic Calcium Ion (Ca^++) Mobilization in platelets; assay: Cytoplasmic calcium ion mobilization in platelets (Indo-1, flow cytometer); assay type: cell-based, human; details: 6.7 μM ADP
Experimental: (§1) Unless otherwise provided below, the experimental procedures were performed according to the procedures provided in U.S. Pat. No. 5,049.550 (Zamecnik '550), the entire contents of which are incorporated herein by reference. Some alternative procedures (e.g., release reaction, PF3 assays) and a number of additional studies also are provided (e.g., cytoplasmic calcium mobilization, fibrinogen binding site, agonists other than ADP, platelet cAMP and distribution of CHCl-AP4 A into blood components). Blood was collected in a 0.1 volume of 3.8% sodium citrate from healthy human volunteers who had abstained from antiplatelet agents for at least 10 days. Platelet rich plasma (PRP) was separated by a gradual centrifugation and adjusted to 3.3×10^8 platelets per ml plasma. PRP has been utilized in the Examples unless otherwise stated.
An increment of cytoplasmic Ca^++ in the platelets represents an activated state. Indo-1 acetomethyl ester (Indo-1) commonly has been utilized as the reagent to detect intracellular free Ca^++. Indo-1 reacts with Ca^++ and produces fluorescence which can be monitored in a dual wavelength (408/485) flow cytometer (Coulter EPIC Systems). Platelets were incubated with Indo-1 at 37° C. for 45 min. Excess Indo-1 in the medium was removed by gel-filtration method. Indo-1-loaded platelets were then activated by 6.7 μM ADP in the absence or presence of thio-CHCl-AP4 A (3.3 μM) or CHCl-AP4 A (6.7 μM). Fluorescence intensity of the platelets was monitored and plotted against platelet number. The histograms generated from the plots were analyzed. Unstimulated platelets registered fluorescence intensity (FI) between 42 and 250 with a peak at 133 (base line control).

[2] = tested on: ADP-induced platelet aggregation; assay: ADP-induced platelet aggregation in platelet-rich plasma (turbidimetric method of Born, aggregometer); assay type: cell-based, human; details: for IC50: ADP-induced aggregation, PRP, mean of three (*) or two determinations
Experimental: as §1
An initial screening was performed for inhibitory effects of several agents (including, e.g., thio-CHCl-AP4 A and CHCl-AP4 A as reference agent)) on platelet aggregation induced by ADP. Platelet aggregation was measured with platelet-rich plasma (PKP) by the turbidimetric method of Born (J. Physiol. 162:67, 1962) in an aggregometer (Chrono-log, Model 530 VS). Platelet aggregation induced by 5 μM ADP in the absence or presence of 5 μM agents was examined. […] The IC50 value of the CHCl-AP4 A (reference agent) was consistent with the value reported previously (P. Zamecnik et al., Proc. Nat'l. Acad. Sci. USA 89:2370-2373 (1992)).

Platelet Factor 3 (PF3) = assay: Platelet factor 3 (PF3) activation, Stypven clotting time; assay type: cell-based, human; details: for Clotting Time (Stypven), ADP-stimulated PF3 activity / Net Change of clotting time / activity at 10 µM: 10 μM agent, 10 μM ADP; for Clotting Time (Stypven), ADP-stimulated PF3 activity: mean of two, baseline 45.8, saline control 38.9; for Net Change of clotting time: saline control -6.9; for activity at 10 µM: Homo sapiens, Platelet, 5 min, saline control 100, read-out: % Change of clotting time
Experimental: PF3 activity of the platelets is enhanced by ADP stimulation and measured by the Stypven clotting time (P. Zamecnik et al., PNAS (USA) 89:2370-2373 (1992)). The data represent a mean of two experiments. Fresh normal human platelet-rich plasma (3×10^8 platelets per ml) was preincubated in the presence or absence of the agents (10 μM) at 37° C. for 5 min and then tested for PF3 activity of the platelets that was stimulated by 10 μM ADP.

platelet cAMP level = assay: Level of intracellular platelet cAMP (etheno-cAMP, HPLC); assay type: cell-based, human; details: for platelet cAMP level: 37° C., 5 min, control 31.6; for effect on the platelet cAMP level: in words
Experimental: as §1
The inhibitory effect of cAMP on platelet aggregation has been known as a counteraction of calcium ion mobilization. Accordingly, the inhibitory effects of the agents with respect to a cAMP mediated mechanism was tested. PRP was incubated with saline (control), agents (at 20 μM and 100 μM), or forskolin (10 μM) at 37° C. for 5 min. After incubation, extracts were made using Ba(OH)2 and ZnSO4. Cyclic AMP in the extracts was converted into the etheno-cAMP derivative, and the levels were estimated by HPLC using a fluorescence detector (W. Wojcik et al., J. Cyclic Nucleotide Res. 7:27-35 (1981)). The level of cAMP in an unknown extract was determined by extrapolation from a standard graph. A linear relationship between the cAMP level in the extracted samples and fluorescence detection was observed. […] However, this increase may not be a specific effect. Although adenosine contamination in the tested AP4 A agents was not detected, it is possible that either cellular adenosine nucleotide metabolic products or contaminated adenosine in the tested agents may be responsible for the elevated cAMP level.

[3] = Molecular stability in whole blood (HPLC of blood extracts); assay type: in vitro ADME, human; details: for Main Peak / Total / X1 (second peak) / X2 (second peak): 250 μM agent, mean of two
Experimental: To test the molecular stability of the agents, blood was incubated with each agent at […] for 4 hours. Samplings at the indicated incubation times were extracted and CHC -AP4 A or thio-CHCl-AP4 A were assayed in an HPLC (Waters 600E pump and controller) with quartenary amine anion exchange column (Whatman Partisil 10) and analysed (Beckman System Gold). The retention times for CHCl-AP4 A and thio-CHCl-AP4 A were 3.39 and 5.95, respectively. Peak areas were integrated and used to construct a standard curve for a concentration range (1, 2, 4, 6, 8 and 10 μM). Both CHCl-AP4 A and thio-CHCl-AP4 A were pure, as observed by a single peak on HPLC, and by a linear relationship between the concentration of the agent and HPLC peak areas. Normal human blood anticoagulated with 0.38% sodium citrate was incubated in the presence of250 μM CHCl-AP4 A or thio-CHCl-AP4 A at […] for 4 hours. Blood samples were extracted with 3% perchloric acid and neutralized with K2 CO3. The extracts were kept at -80° C. until an assay using an HPLC. The values in Table 9 represent a mean of two experiments and are expressed in nmol/ml blood. […] An estimated quantity of CHCl-AP4 A major peak indicated a slow degradation showing a reduction of 30% after 4 hours incubation. At least 80% of degradation product, possibly chloromethylene monoadenosine triphosphate (AppCp) is associated with the second peak (X1). […] The second peak of the blood extract with thio-CHCl-AP4 A may be an isomer (X2), e.g., monothio compound (Aps pCppA or AppCpps A). It was not detected by HPLC of the pure compound, but registered a small portion (<10%) in the blood extraction at time 0 and about 20% of the major peak thereafter.

SMILES: Nc1ncnc2c1ncn2[C@@H]1O[C@H](COP(=O)(O)OP(=O)(O)C(Cl)P(=O)(O)OP(=O)(O)OC[C@H]2O[C@@H](n3cnc4c(N)ncnc43)[C@H](O)[C@@H]2O)[C@@H](O)[C@H]1O (some centres unmarked) [CHCl-AP4 A]
- effect on ADP-induced Ca^++ mobilization ([1]; 6.7 μM CHCl-AP4 A): blocked completely
- IC50 [2]: 3280 nM
- Clotting Time (Stypven), ADP-stimulated PF3 activity (Platelet Factor 3 (PF3)): 43.1 s
- Net Change of clotting time (Platelet Factor 3 (PF3)): -2.7
- activity at 10 µM (Platelet Factor 3 (PF3)): 39.1%
- platelet cAMP level (platelet cAMP level; 20 μM agent): 30.6 nM
- effect on the platelet cAMP level (platelet cAMP level; 20 μM): no effect
- platelet cAMP level (platelet cAMP level; 100 μM agent): 56.7 nM
- effect on the platelet cAMP level (platelet cAMP level; 100 μM): moderate increase
- Main Peak ([3]; 0 min): 249.2 nmol/ml blood
- Total ([3]; 0 min): 249.2 nmol/ml blood
- X1 (second peak) ([3]; 0 min): trace
- Main Peak ([3]; 60 min): 249.0 nmol/ml blood
- Total ([3]; 60 min): 274.8 nmol/ml blood
- X1 (second peak) ([3]; 60 min): 25.8 nmol/ml blood
- Main Peak ([3]; 120 min): 222.0 nmol/ml blood
- Total ([3]; 120 min): 258.6 nmol/ml blood
- X1 (second peak) ([3]; 120 min): 36.6 nmol/ml blood
- Main Peak ([3]; 240 min): 173.2 nmol/ml blood
- Total ([3]; 240 min): 236.3 nmol/ml blood
- X1 (second peak) ([3]; 240 min): 63.3 nmol/ml blood
- recovery at 1 h, 250 µM ([3]; human, blood, 60 minutes, read-out: Total extraction efficiency): 110%
- metabolised at 4 h, 250 µM ([3]; human, blood, after 4 hours incubation, read-out: reduction of major peak (slow degradation)): 30%
- degradation product associated with the second peak (X1) ([3]; whole blood): At least 80%

SMILES: Nc1ncnc2c1ncn2[C@@H]1O[C@H](COP(O)(=S)OP(=O)(O)C(Cl)P(=O)(O)OP(O)(=S)OC[C@H]2O[C@@H](n3cnc4c(N)ncnc43)[C@H](O)[C@@H]2O)[C@@H](O)[C@H]1O (some centres unmarked) [Thio-CHCl-AP4 A, P^1, P^4 -dithio -P^2 -P^3 monochloromethylene 5', 5'" diadenosine P^1, P^4 -tetraphosphate]
- effect on ADP-induced Ca^++ mobilization ([1]; 3.3 μM thio-CHCl-AP4 A): blocked completely
- IC50 [2]: 810 nM
- in vitro platelet aggregation inhibitory activity relative to AP4 A and analogs ([2]; compared to AP4 A, known analogs, non-thio counterpart, in words, listed as Aps pCHClpps A): nearly an order of magnitude greater than the inhibitory activity of naturally-occurring AP4 A; also recorded: significantly greater than the activities of known AP4 A analogs; also recorded: significantly greater platelet aggregation inhibitory activity than that of its corresponding non-thio counterpart
- Clotting Time (Stypven), ADP-stimulated PF3 activity (Platelet Factor 3 (PF3)): 44.5 s
- Net Change of clotting time (Platelet Factor 3 (PF3)): -1.3
- activity at 10 µM (Platelet Factor 3 (PF3)): 18.8%
- inhibitory effect on ADP-stimulated PF3 activity (Platelet Factor 3 (PF3); compared to CHCl-AP4 A, in words): significantly greater than that of the non-thio reference agent
- platelet cAMP level (platelet cAMP level; 20 μM agent): 28.6 nM
- effect on the platelet cAMP level (platelet cAMP level; 20 μM): no effect
- platelet cAMP level (platelet cAMP level; 100 μM agent): 54.4 nM
- effect on the platelet cAMP level (platelet cAMP level; 100 μM): moderate increase
- Main Peak ([3]; 0 min): 157.7 nmol/ml blood
- Total ([3]; 0 min): 172.0 nmol/ml blood
- X2 (second peak) ([3]; 0 min): 14.3 nmol/ml blood
- Main Peak ([3]; 60 min): 172.3 nmol/ml blood
- Total ([3]; 60 min): 205.9 nmol/ml blood
- X2 (second peak) ([3]; 60 min): 33.6 nmol/ml blood
- Main Peak ([3]; 120 min): 180.0 nmol/ml blood
- Total ([3]; 120 min): 211.4 nmol/ml blood
- X2 (second peak) ([3]; 120 min): 31.4 nmol/ml blood
- Main Peak ([3]; 240 min): 173.7 nmol/ml blood
- Total ([3]; 240 min): 202.0 nmol/ml blood
- X2 (second peak) ([3]; 240 min): 38.3 nmol/ml blood
- second peak (X2), % of the major peak ([3]; after time 0): about 20 % of the major peak
- stability in blood ([3]; at least 4 hours at 37° C., in words): very stable in blood for at least 4 hours at 37 °C
- recovery at 2 h, 250 µM ([3]; human, blood, 120 minutes, read-out: Total extraction efficiency): 85%
- recovery at 1 h, 250 µM ([3]; human, blood, samples after 60 minutes, read-out: Extraction efficiency): 81 to 85%
- recovery at 0 h, 250 µM ([3]; human, blood, time 0, read-out: Extraction efficiency): 69%
- second peak (X2) portion in the blood extraction ([3]; time 0): < 10%
